Data published in patent US11866720B2, “Transgenic or non-transgenic plants with mutated protoporphyrinogen oxidase having increased tolerance to herbicides” (priority 2013, dated 2024).
“And” between values parts separate entries of the source, which are not always exact repeats. Equal entries are not always repeated. Where two headings read alike, the source gives them in different places.

Legend:
Assay type in all cases: in vivo, Glycine max
[1] = tested on: transgenic soybean expressing mutated PPO; assay: Soybean T0 cuttings, greenhouse spray test (injury score 0-9, 1 week after treatment); conditions: for Injury score from 0-9: soybean T0 cuttings, 1 week after treatment
Text: For testing of T0 plants, cuttings can be used. In the case of soybean plants, an optimal shoot for cutting is about 7.5 to 10 cm tall, with at least two nodes present. Each cutting is taken from the original transformant (mother plant) and dipped into rooting hormone powder (indole-3-butyric acid, IBA). The cutting is then placed in oasis wedges inside a bio-dome. Wild type cuttings are also taken simultaneously to serve as controls. The cuttings are kept in the bio-dome for 5-7 days and then transplanted to pots and then acclimated in the growth chamber for two more days. Subsequently, the cuttings are transferred to the greenhouse, acclimated for approximately 4 days, and then subjected to spray tests as indicated. Depending on the species, the plants are kept at 10-25° C. or 20-35° C. The test period extends over 3 weeks. During this time, the plants are tended and their response to the individual treatments is evaluated. Herbicide injury evaluations are taken at 2 and 3 weeks after treatment. Plant injury is rated on a scale of 0% to 100%, 0% being no injury and 100% being complete death.
Soybean cv Jake was transformed as previously described by Siminszky et al., Phytochem Rev. 5:445-458 (2006). After regeneration, transformants were transplanted to soil in small pots, placed in growth chambers (16 hr day/8 hr night; 25° C. day/23° C. night; 65% relative humidity; 130-150 microE m-2 s-1) and subsequently tested for the presence of the T-DNA via Taqman analysis. After a few weeks, healthy, transgenic positive, single copy events were transplanted to larger pots and allowed to grow in the growth chamber. An optimal shoot for cutting was about 3-4 inches tall, with at least two nodes present. Each cutting was taken from the original transformant (mother plant) and dipped into rooting hormone powder (indole-3-butyric acid, IBA). The cutting was then placed in oasis wedges inside a bio-dome. The mother plant was taken to maturity in the greenhouse and harvested for seed. Wild type cuttings were also taken simultaneously to serve as negative controls. The cuttings were kept in the bio-dome for 5-7 days and then transplanted to 3 inch pots and then acclimated in the growth chamber for two more days. […] Herbicide injury evaluations were taken at 2, 7, 14 and 21 days after treatment. Results are shown in Tables 11a-11i, and FIGS. 5, 6, and 7.
The following gives a definition of the injury scores measured above: […]

[2] = tested on: transgenic soybean expressing mutated PPO; assay: Soybean segregating T1 individuals, greenhouse spray test (injury 0-9); conditions: Saflufenacil 150 g ai/ha, 1 week after treatment
[3] = tested on: transgenic soybean expressing mutated PPO; conditions: T1 soybean, field

CC(C)N(C)S(=O)(=O)NC(=O)c1cc(-n2c(=O)cc(C(F)(F)F)n(C)c2=O)c(F)cc1Cl [Saflufenacil, saflufenacil]
injury score 1 WAT ([1]; Soy T0 AmtuPPX2L_R128L_F420V event 1, greenhouse, 100 g ai/ha): 4
injury score 1 WAT ([1]; Soy T0 AmtuPPX2L_R128L_F420V event 1, greenhouse, 200 g ai/ha): 6
injury score 1 WAT ([1]; Soy T0 AmtuPPX2L_R128L_F420V event 2, greenhouse, 100 g ai/ha): 1
injury score 1 WAT ([1]; Soy T0 AmtuPPX2L_R128L_F420V event 2, greenhouse, 200 g ai/ha): 2
Injury score from 0-9 ([1]; AmtuPPX2L (10 events), Kixor 12.5 + 1% MSO): 2
Injury score from 0-9 ([1]; AmtuPPX2L (10 events), Kixor 25 + 1% MSO): 4
Injury score from 0-9 ([1]; AmtuPPX2L (10 events), Kixor 50 + 1% MSO): 7
Injury score from 0-9 ([1]; AmtuPPX2L_F420L (7 events), Kixor 12.5 + 1% MSO): 1
Injury score from 0-9 ([1]; AmtuPPX2L_F420L (7 events), Kixor 25 + 1% MSO): 0
Injury score from 0-9 ([1]; AmtuPPX2L_F420L (7 events), Kixor 50 + 1% MSO): 0
Injury score from 0-9 ([1]; AmtuPPX2L_F420M (8 events), Kixor 25 + 1% MSO): 0
Injury score from 0-9 ([1]; AmtuPPX2L_F420M (8 events), Kixor 50 + 1% MSO): 3
Injury score from 0-9 ([1]; AmtuPPX2L_F420M (8 events), Kixor 100 + 1% MSO): 3
Injury score from 0-9 ([1]; AmtuPPX2L_R128A_F420I (9 events), Kixor 200 + 1% MSO): 1
Injury score from 0-9 ([1]; AmtuPPX2L_R128A_F420L (6 events), Kixor 25 + 1% MSO): 0
Injury score from 0-9 ([1]; AmtuPPX2L_R128A_F420L (6 events), Kixor 50 + 1% MSO): 1
Injury score from 0-9 ([1]; AmtuPPX2L_R128A_F420L (6 events), Kixor 100 + 1% MSO): 1
Injury score from 0-9 ([1]; AmtuPPX2L_R128A_F420M (7 events), Kixor 100 + 1% MSO): 2
Injury score from 0-9 ([1]; AmtuPPX2L_R128A_F420M (7 events), Kixor 200 + 1% MSO): 2
Injury score from 0-9 ([1]; AmtuPPX2L_R128A_F420V (14 events), Kixor 100 + 1% MSO): 2
Injury score from 0-9 ([1]; AmtuPPX2L_R128A_F420V (14 events), Kixor 200 + 1% MSO): 2
Injury score from 0-9 ([1]; AmtuPPX2L_dG210 (13 events), Kixor 25 + 1% MSO): 1
Injury score from 0-9 ([1]; AmtuPPX2L_dG210 (13 events), Kixor 50 + 1% MSO): 2
Injury score from 0-9 ([1]; AmtuPPX2L_dG210 (13 events), Kixor 100 + 1% MSO): 1
Injury score from 0-9 ([1]; AmtuPPX2L_dG210_R128L (12 events), Kixor 25 + 1% MSO): 0
Injury score from 0-9 ([1]; AmtuPPX2L_dG210_R128L (12 events), Kixor 50 + 1% MSO): 1
Injury score from 0-9 ([1]; AmtuPPX2L_dG210_R128L (12 events), Kixor 100 + 1% MSO): 1
Injury score from 0-9 ([1]; NitabPPX2 (13 events), Kixor 12.5 + 1% MSO): 3
Injury score from 0-9 ([1]; NitabPPX2 (13 events), Kixor 25 + 1% MSO): 6
Injury score from 0-9 ([1]; NitabPPX2 (13 events), Kixor 50 + 1% MSO): 9
Injury score from 0-9 ([1]; NitabPPX2_R98A_F392V (9 events), Kixor 50 + 1% MSO): 0
Injury score from 0-9 ([1]; NitabPPX2_R98A_F392V (9 events), Kixor 100 + 1% MSO): 2
Injury score from 0-9 ([1]; NitabPPX2_R98A_F392V (9 events), Kixor 200 + 1% MSO): 2
Injury score from 0-9 ([1]; wild type Jake variety, Kixor 12.5 + 1% MSO): 9
Injury score from 0-9 ([1]; wild type Jake variety, Kixor 25 + 1% MSO): 9
Injury score from 0-9 ([1]; wild type Jake variety, Kixor 50 + 1% MSO): 9
Injury score from 0-9 ([1]; wild type Jake variety, Kixor 100 + 1% MSO): 9
Injury score from 0-9 ([1]; wild type Jake variety, Kixor 200 + 1% MSO): 9
injury (0-9 point scale) ([2]; SDS10791 AmtuPPX2L R128A_F420I): 1 (2×) and 2 and 0 and 9 (4×)
injury (0-9 point scale) ([2]; SDS-10642 AmtuPPX2L R128A_F420L): 0 (6×) and 1 (2×)
injury (0-9 point scale) ([2]; SDS-10648 AmtuPPX2L R128A_F420I): 3 and 4 (3×) and 5 (3×) and 6
injury (0-9 point scale) ([2]; SDS-10652 AmtuPPX2L L397D_F420V): 3 (3×) and 5 (2×) and 4 (2×) and 6
injury (0-9 point scale) ([2]; SDS-10787 AmtuPPX2L R128A_F420L): 6 and 5 and 4 (4×) and 0 and 9
injury (0-9 point scale) ([2]; SDS-10985 AmtuPPX2L R128A_F420M): 0 (3×) and 1 (2×) and 3 and 2
injury (0-9 point scale) ([2]; SDS-10990 AmtuPPX2L R128A_F420M): 3 (4×) and 4 and 9 and 0 and 1
injury (0-9 point scale) ([2]; SDS-11034 AmtuPPX2L R128A_F420V): 0 (5×) and 5 and 1 and 2
injury (0-9 point scale) ([2]; wild type): 9
Injury rating (1-5 point scale) ([3]; AmtuPPX2L_R128A_F420V (event 10), saflufenacil: treatment 1 150 g ai/ha, treatment 2 0, 7 DAT): 3
Injury rating (1-5 point scale) ([3]; AmtuPPX2L_R128A_F420V (event 10), saflufenacil: treatment 1 300 g ai/ha, treatment 2 300 g ai/ha, 14 DAT): 3
Injury rating (1-5 point scale) ([3]; SDS-10533 LTM382-2 AmtuPPX2L_F420L, Saflufenacil (75 gai/ha), 3 days after treatment): 2.5
Injury rating (1-5 point scale) ([3]; SDS-10533 LTM382-2 AmtuPPX2L_F420L, Saflufenacil (150 gai/ha), 3 days after treatment): 2.5
Injury rating (1-5 point scale) ([3]; SDS-10544 LTM382-2 AmtuPPX2L_F420L, Saflufenacil (75 gai/ha), 3 days after treatment): 2.5
Injury rating (1-5 point scale) ([3]; SDS-10544 LTM382-2 AmtuPPX2L_F420L, Saflufenacil (150 gai/ha), 3 days after treatment): 2.5
Injury rating (1-5 point scale) ([3]; SDS-10558 LTM382-2 AmtuPPX2L_F420L, Saflufenacil (75 gai/ha), 3 days after treatment): 2.5
Injury rating (1-5 point scale) ([3]; SDS-10558 LTM382-2 AmtuPPX2L_F420L, Saflufenacil (150 gai/ha), 3 days after treatment): 2
Injury rating (1-5 point scale) ([3]; SDS-10562 LTM377-1 AmtuPPX2L_dG210, Saflufenacil (75 gai/ha), 3 days after treatment): 4
Injury rating (1-5 point scale) ([3]; SDS-10562 LTM377-1 AmtuPPX2L_dG210, Saflufenacil (150 gai/ha), 3 days after treatment): 4
Injury rating (1-5 point scale) ([3]; SDS-10566 LTM377-1 AmtuPPX2L_dG210, Saflufenacil (75 gai/ha), 3 days after treatment): 4
Injury rating (1-5 point scale) ([3]; SDS-10566 LTM377-1 AmtuPPX2L_dG210, Saflufenacil (150 gai/ha), 3 days after treatment): 4
Injury rating (1-5 point scale) ([3]; SDS-10633 LTM383-1 AmtuPPX2L_F420M, Saflufenacil (75 gai/ha), 3 days after treatment): 3
Injury rating (1-5 point scale) ([3]; SDS-10633 LTM383-1 AmtuPPX2L_F420M, Saflufenacil (150 gai/ha), 3 days after treatment): 3
Injury rating (1-5 point scale) ([3]; SDS-10635 LTM383-1 AmtuPPX2L_F420M, Saflufenacil (75 gai/ha), 3 days after treatment): 3.5
Injury rating (1-5 point scale) ([3]; SDS-10635 LTM383-1 AmtuPPX2L_F420M, Saflufenacil (150 gai/ha), 3 days after treatment): 3.5
Injury rating (1-5 point scale) ([3]; SDS-10642 LTM384-1 AmtuPPX2L_R128A_F420L, Saflufenacil (75 gai/ha), 3 days after treatment): 2
Injury rating (1-5 point scale) ([3]; SDS-10642 LTM384-1 AmtuPPX2L_R128A_F420L, Saflufenacil (150 gai/ha), 3 days after treatment): 2
Injury rating (1-5 point scale) ([3]; SDS-10645 LTM383-1 AmtuPPX2L_F420M, Saflufenacil (75 gai/ha), 3 days after treatment): 4
Injury rating (1-5 point scale) ([3]; SDS-10645 LTM383-1 AmtuPPX2L_F420M, Saflufenacil (150 gai/ha), 3 days after treatment): 3
Injury rating (1-5 point scale) ([3]; SDS-10646 LTM383-1 AmtuPPX2L_F420M, Saflufenacil (75 gai/ha), 3 days after treatment): 2.5
Injury rating (1-5 point scale) ([3]; SDS-10646 LTM383-1 AmtuPPX2L_F420M, Saflufenacil (150 gai/ha), 3 days after treatment): 2.5
